The results in this text go back to patent publication US11306101B2 (Celgene Corporation, priority 2019, dated 2022).

Structures are written as SMILES. Some results are limits rather than exact numbers.

For orientation: DC50 means the midpoint of the concentration-degradation curve. Low readings indicate degradation at low concentration, high ones degradation only at high concentration.

In this test the target is T1, CK1α (Homo sapiens, UniProt P48729+Q96SW2).
T1 construct: expressed in transfected cells
The test can be described thus: CK1α ePL degradation assay in MDS-L cells. Conditions: MDS-L cells expressing ePL-tagged CK1α; for DC50: concentration giving 50% CK1α degradation vs DMSO control; for Y: lowest measured CK1α level normalized to DMSO control. It counts as cell-based. Here is the method: The following is an example of an assay that can be used to determine the CK1α degradation activity of Isoindolinone Carboxamide Compounds in a cell line, for example, the MDS-L cell line.
Compounds were dispensed by an acoustic dispenser (ATS acoustic transfer system from EDC Biosystems) into a 384-well in a 10 point dose-response curve using 3-fold dilutions starting at 10 μM and going down to 0.0005 μM in DMSO. […] Assay plates were incubated at 37° C. with 5% CO2 for the indicated times. At the different time points, 25 μL of the InCELL Hunter™ Detection Reagent Working Solution (catalog number 96-0002, DiscoverX, Fremont, Calif.) was added to each well and incubated at RT for 30 min protected from light. After 30 min, luminescence was read on a PHERAstar luminometer (BMG LABTECH, Cary, N.C.).
CK1α levels in compound-treated wells were normalized to that of DMSO control and expressed as percent of control (PoC) (y).
The lowest measured CK1α level normalized to DMSO control in response to compound treatment, termed Y value, was used to characterize the compound-mediated CK1α degradation efficiency.

T1 sequence (P48729 whole entry): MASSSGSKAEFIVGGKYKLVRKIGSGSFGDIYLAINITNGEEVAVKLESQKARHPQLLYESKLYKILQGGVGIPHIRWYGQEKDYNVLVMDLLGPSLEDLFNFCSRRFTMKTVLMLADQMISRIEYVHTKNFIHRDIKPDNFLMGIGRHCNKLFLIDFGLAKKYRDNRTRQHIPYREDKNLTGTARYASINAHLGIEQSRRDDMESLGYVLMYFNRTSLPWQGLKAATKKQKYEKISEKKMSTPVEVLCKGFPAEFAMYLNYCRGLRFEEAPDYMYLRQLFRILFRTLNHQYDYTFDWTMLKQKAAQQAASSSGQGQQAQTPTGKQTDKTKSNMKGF
T1 sequence (Q96SW2 whole entry): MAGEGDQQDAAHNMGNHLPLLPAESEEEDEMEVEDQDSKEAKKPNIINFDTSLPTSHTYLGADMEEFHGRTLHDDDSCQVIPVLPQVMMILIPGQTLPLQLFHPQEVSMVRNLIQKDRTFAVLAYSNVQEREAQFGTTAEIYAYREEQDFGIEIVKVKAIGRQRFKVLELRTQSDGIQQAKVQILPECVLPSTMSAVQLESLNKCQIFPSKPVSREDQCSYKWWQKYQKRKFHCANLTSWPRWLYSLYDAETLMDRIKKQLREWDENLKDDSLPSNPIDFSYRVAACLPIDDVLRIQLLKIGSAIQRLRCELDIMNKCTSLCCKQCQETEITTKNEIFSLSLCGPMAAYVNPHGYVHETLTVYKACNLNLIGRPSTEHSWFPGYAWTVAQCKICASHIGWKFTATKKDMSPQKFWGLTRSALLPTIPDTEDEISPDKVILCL
T1 sequence (Q16531 whole entry partner): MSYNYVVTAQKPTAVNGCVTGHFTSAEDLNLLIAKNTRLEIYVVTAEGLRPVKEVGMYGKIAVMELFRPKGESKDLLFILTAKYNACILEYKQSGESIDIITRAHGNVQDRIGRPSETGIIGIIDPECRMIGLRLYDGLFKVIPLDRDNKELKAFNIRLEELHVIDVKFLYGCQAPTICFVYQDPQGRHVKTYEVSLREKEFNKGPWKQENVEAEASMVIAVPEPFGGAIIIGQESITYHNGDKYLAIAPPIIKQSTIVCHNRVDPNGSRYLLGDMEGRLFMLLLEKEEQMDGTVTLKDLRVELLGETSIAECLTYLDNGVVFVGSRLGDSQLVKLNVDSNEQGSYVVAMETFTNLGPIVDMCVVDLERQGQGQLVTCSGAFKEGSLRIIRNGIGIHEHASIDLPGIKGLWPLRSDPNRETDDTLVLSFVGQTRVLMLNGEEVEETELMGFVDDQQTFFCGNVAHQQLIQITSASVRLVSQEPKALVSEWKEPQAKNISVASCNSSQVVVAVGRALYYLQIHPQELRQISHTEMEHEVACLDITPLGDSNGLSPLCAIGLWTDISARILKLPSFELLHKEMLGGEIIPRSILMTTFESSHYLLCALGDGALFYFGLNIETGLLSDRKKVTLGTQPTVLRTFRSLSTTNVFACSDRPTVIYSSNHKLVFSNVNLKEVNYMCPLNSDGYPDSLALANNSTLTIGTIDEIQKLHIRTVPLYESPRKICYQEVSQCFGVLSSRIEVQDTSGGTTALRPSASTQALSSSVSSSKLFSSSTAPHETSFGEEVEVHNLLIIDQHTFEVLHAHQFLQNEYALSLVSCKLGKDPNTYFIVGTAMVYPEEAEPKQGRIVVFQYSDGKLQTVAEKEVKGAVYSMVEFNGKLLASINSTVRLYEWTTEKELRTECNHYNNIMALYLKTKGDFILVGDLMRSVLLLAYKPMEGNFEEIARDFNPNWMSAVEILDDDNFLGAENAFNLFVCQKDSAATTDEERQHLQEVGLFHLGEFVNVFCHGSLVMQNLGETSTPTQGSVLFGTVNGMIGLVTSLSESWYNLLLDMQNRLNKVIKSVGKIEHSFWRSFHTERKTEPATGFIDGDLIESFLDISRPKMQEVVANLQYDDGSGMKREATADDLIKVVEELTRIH

`Cn1cc([C@@H](NC(=O)c2ccc3c(c2)CN(C2CCC(=O)NC2=O)C3=O)C(F)(F)F)cn1` (stereo partly drawn) [Example 70, 2-(2,6-dioxopiperidin-3-yl)-1-oxo-N-((R)-2,2,2-trifluoro-1-(1-methyl-1H-pyrazol-4-yl)ethyl)isoindoline-5-carboxamide]: the DC50 lay in the range of 100 to 500 nM and the Y result is “** (a Y value (shown as**) of 20%<Y≤35%)”.

As to `O=C1CCC(N2Cc3cc(C(=O)N[C@H](C4CCC(C(F)(F)F)CC4)C(F)(F)F)ccc3C2=O)C(=O)N1` (stereo partly drawn) [Example 71, 2-(2,6-dioxopiperidin-3-yl)-1-oxo-N-((1R)-2,2,2-trifluoro-1-(4-(trifluoromethyl)cyclohexyl)ethyl)isoindoline-5-carboxamide], the DC50 was < 100 nM and the Y result is “* (a Y value (shown as *) of 0<Y≤20%)”.

`O=C1CCC(N2Cc3cc(C(=O)N[C@H](c4ccc(F)cc4Cl)C(F)(F)F)ccc3C2=O)C(=O)N1` (stereo partly drawn) [Example 72, N-((R)-1-(2-chloro-4-fluorophenyl)-2,2,2-trifluoroethyl)-2-(2,6-dioxopiperidin-3-yl)-1-oxoisoindoline-5-carboxamide]: the DC50 was < 100 nM and the Y entry is on record as “* (a Y value (shown as *) of 0<Y≤20%)”.

As to `O=C1CCC(N2Cc3cc(C(=O)N[C@H](c4ccc(F)c(F)c4)C(F)(F)F)ccc3C2=O)C(=O)N1` (stereo partly drawn) [Example 73, N-((R)-1-(3,4-difluorophenyl)-2,2,2-trifluoroethyl)-2-(2,6-dioxopiperidin-3-yl)-1-oxoisoindoline-5-carboxamide], the DC50 was < 100 nM and the Y entry is “* (a Y value (shown as *) of 0<Y≤20%)”.

Take `CC1([C@@H](NC(=O)c2ccc3c(c2)CN(C2CCC(=O)NC2=O)C3=O)C(F)(F)F)CCC1` (stereo partly drawn) [Example 74, 2-(2,6-dioxopiperidin-3-yl)-1-oxo-N-((R)-2,2,2-trifluoro-1-(1-methylcyclobutyl)ethyl)isoindoline-5-carboxamide]: the DC50 was < 100 nM and the Y entry is recorded as “* (a Y value (shown as *) of 0<Y≤20%)”.

Consider `O=C1CCC(N2Cc3cc(C(=O)N[C@@H](C(F)(F)F)C4(C(F)(F)F)CC4)ccc3C2=O)C(=O)N1` (stereo partly drawn) [Example 75, 2-(2,6-dioxopiperidin-3-yl)-1-oxo-N-((R)-2,2,2-trifluoro-1-(1-(trifluoromethyl)cyclopropyl)ethyl)isoindoline-5-carboxamide], for which the DC50 was 100 to 500 nM and the Y entry is given as “** (a Y value (shown as**) of 20%<Y≤35%)”.

Take `O=C1CCC(N2Cc3cc(C(=O)N[C@H](c4ccc(F)cn4)C(F)(F)F)ccc3C2=O)C(=O)N1` (stereo partly drawn) [Example 76, 2-(2,6-dioxopiperidin-3-yl)-1-oxo-N-((R)-2,2,2-trifluoro-1-(5-fluoropyridin-2-yl)ethyl)isoindoline-5-carboxamide]: the DC50 was < 100 nM and the Y entry is listed as “** (a Y value (shown as**) of 20%<Y≤35%)”.

On to `O=C1CCC(N2Cc3cc(C(=O)N[C@H](c4ccc(F)cc4C(F)(F)F)C(F)(F)F)ccc3C2=O)C(=O)N1` (stereo partly drawn) [Example 77, 2-(2,6-dioxopiperidin-3-yl)-1-oxo-N-((R)-2,2,2-trifluoro-1-(4-fluoro-2-(trifluoromethyl)phenyl)ethyl)isoindoline-5-carboxamide], for which the DC50 was < 100 nM and the Y entry was “* (a Y value (shown as *) of 0<Y≤20%)”.

For `CC1([C@@H](NC(=O)c2ccc3c(c2)CN(C2CCC(=O)NC2=O)C3=O)C(F)(F)F)CC1` (stereo partly drawn) [Example 78, 2-(2,6-dioxopiperidin-3-yl)-1-oxo-N-((R)-2,2,2-trifluoro-1-(1-methylcyclopropyl)ethyl)isoindoline-5-carboxamide], the DC50 was < 100 nM and the Y result is given as “* (a Y value (shown as *) of 0<Y≤20%)”.

On to `O=C1CCC(N2Cc3cc(C(=O)N[C@H](c4ccc(Cl)cc4F)C(F)(F)F)ccc3C2=O)C(=O)N1` (stereo partly drawn) [Example 79, N-((R)-1-(4-chloro-2-fluorophenyl)-2,2,2-trifluoroethyl)-2-(2,6-dioxopiperidin-3-yl)-1-oxoisoindoline-5-carboxamide], for which the DC50 was < 100 nM and the Y result is recorded as “* (a Y value (shown as *) of 0<Y≤20%)”.

Take `O=C1CCC(N2Cc3cc(C(=O)N[C@H](c4ccc(F)cc4F)C(F)(F)F)ccc3C2=O)C(=O)N1` (stereo partly drawn) [Example 80, N-((R)-1-(2,4-difluorophenyl)-2,2,2-trifluoroethyl)-2-(2,6-dioxopiperidin-3-yl)-1-oxoisoindoline-5-carboxamide]: the DC50 is < 100 nM and the Y result is “* (a Y value (shown as *) of 0<Y≤20%)”.

For the compound `CN1CCC([C@@H](NC(=O)c2ccc3c(c2)CN(C2CCC(=O)NC2=O)C3=O)C(F)(F)F)CC1` (stereo partly drawn) [Example 81, 2-(2,6-dioxopiperidin-3-yl)-1-oxo-N-((R)-2,2,2-trifluoro-1-(1-methylpiperidin-4-yl)ethyl)isoindoline-5-carboxamide], the DC50 was 500 to 1000 nM and the Y entry is on record as “** (a Y value (shown as**) of 20%<Y≤35%)”.

`O=C1CCC(N2Cc3cc(C(=O)N[C@H](c4cnccn4)C(F)(F)F)ccc3C2=O)C(=O)N1` (stereo partly drawn) [Example 82, 2-(2,6-dioxopiperidin-3-yl)-1-oxo-N-((R)-2,2,2-trifluoro-1-(pyrazin-2-yl)ethyl)isoindoline-5-carboxamide]: the DC50 lay in the range of 100 to 500 nM and the Y result is listed as “** (a Y value (shown as**) of 20%<Y≤35%)”.

For the compound `CC1([C@@H](NC(=O)c2ccc3c(c2)CN(C2CCC(=O)NC2=O)C3=O)C(F)(F)F)CCCC1` (stereo partly drawn) [Example 83, 2-(2,6-dioxopiperidin-3-yl)-1-oxo-N-((R)-2,2,2-trifluoro-1-(1-methylcyclopentyl)ethyl)isoindoline-5-carboxamide], the DC50 was < 100 nM and the Y entry is given as “* (a Y value (shown as *) of 0<Y≤20%)”.

As to `O=C1CCC(N2Cc3cc(C(=O)N[C@H](c4ccccc4)C(F)(F)F)c(F)cc3C2=O)C(=O)N1` (stereo partly drawn) [Example 84, 2-(2,6-dioxopiperidin-3-yl)-6-fluoro-1-oxo-N-((R)-2,2,2-trifluoro-1-phenylethyl)isoindoline-5-carboxamide], the DC50 was 100 to 500 nM and the Y result is “** (a Y value (shown as**) of 20%<Y≤35%)”.

Regarding `C[C@H](NC(=O)c1cc2c(cc1F)C(=O)N(C1CCC(=O)NC1=O)C2)c1ccccc1` (stereo partly drawn) [Example 85, 2-(2,6-dioxopiperidin-3-yl)-6-fluoro-1-oxo-N-((S)-1-phenylethyl)isoindoline-5-carboxamide], the DC50 was 500 to 1000 nM and the Y result is recorded as “*** (a Y value (shown as***) of 35%<Y<50%)”.

With `O=C1CCC(N2Cc3cc(C(=O)N[C@H](c4ccc(F)cc4OC(F)(F)F)C(F)(F)F)ccc3C2=O)C(=O)N1` (stereo partly drawn) [Example 86, 2-(2,6-dioxopiperidin-3-yl)-1-oxo-N-((R)-2,2,2-trifluoro-1-(4-fluoro-2-(trifluoromethoxy)phenyl)ethyl)isoindoline-5-carboxamide], the DC50 is < 100 nM and the Y entry is recorded as “* (a Y value (shown as *) of 0<Y≤20%)”.

Turning to `CC(C)(C#N)[C@@H](NC(=O)c1ccc2c(c1)CN(C1CCC(=O)NC1=O)C2=O)C(F)(F)F` (stereo partly drawn) [Example 87, N-((R)-3-cyano-1,1,1-trifluoro-3-methylbutan-2-yl)-2-(2,6-dioxopiperidin-3-yl)-1-oxoisoindoline-5-carboxamide], the DC50 fell in the range of 100 to 500 nM and the Y result is “** (a Y value (shown as**) of 20%<Y≤35%)”.
